# According to patent US9920061B2, “Imidazo[1,5-A]pyrimidinyl carboxamide compounds and their use in the treatment of medical disorders” (Lysosomal Therapeutics Inc., priority 2016, dated 2018):
# Read-outs that look alike come from different tables or passages of the source.
# Columns and labels:
# [1] = molecular target: T1, glucocerebrosidase (Gcase) (Homo sapiens, UniProt P04062); test: Glucocerebrosidase (Gcase) activation assay, 4-methylumbelliferyl-beta-D-glucopyranoside substrate, with saposin C; format: biochemical
# T1 sequence (P04062 40-536): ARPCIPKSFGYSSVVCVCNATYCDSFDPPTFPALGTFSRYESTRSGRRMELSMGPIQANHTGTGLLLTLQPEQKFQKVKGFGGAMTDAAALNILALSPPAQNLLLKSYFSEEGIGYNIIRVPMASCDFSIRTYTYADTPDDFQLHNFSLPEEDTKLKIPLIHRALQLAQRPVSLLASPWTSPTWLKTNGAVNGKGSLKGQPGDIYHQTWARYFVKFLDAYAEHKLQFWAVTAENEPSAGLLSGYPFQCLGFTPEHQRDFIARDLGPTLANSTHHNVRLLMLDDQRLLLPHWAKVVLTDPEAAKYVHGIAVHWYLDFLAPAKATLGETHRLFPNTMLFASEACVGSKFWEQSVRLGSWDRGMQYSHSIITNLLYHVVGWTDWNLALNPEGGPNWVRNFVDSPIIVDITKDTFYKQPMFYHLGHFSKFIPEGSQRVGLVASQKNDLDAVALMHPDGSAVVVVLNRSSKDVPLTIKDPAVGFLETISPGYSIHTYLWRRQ
# Description: The ability of exemplary compounds to activate glucocerebrosidase (Gcase) was measured.
# A 484 μL aliquot of a 1.0 mg/mL solution of phosphatidylserine (PS) (Sigma P7769) in chloroform was evaporated under a stream of nitrogen for 1 hour. The lipid film was dissolved over 4 minutes of vigorous vortexing in 40 mL of 176 mM K2HPO4/50 mM citric acid (pH 4.7) containing 7.5 μL of triton X-100, resulting in a mixed micellar preparation with a composition of 0.32 mM triton and 0.37 mol % PS. 4-Methylumbelliferyl-beta-D-glucopyranoside (ACROS-337025000) was dissolved in the micellar solution to a final concentration of 2 mM for use as the reaction substrate.
# Test compounds were diluted to the desired concentrations with dimethylsulfoxide (DMSO) from 10 mM stocks, and 0.41 μL of the DMSO compound mixture was added to 100 μL of micellar solution containing 10 nM GCase and 100 nM saposin C (Enzo ALX-201-262-C050). Pre-incubation was allowed to occur for 30 minutes at room temperature, after which the reaction was initiated by combining 25 μL of substrate solution with 25 μL of compound/GCase/saposin mixture. The reaction proceeded for 15 minutes at room temperature and was stopped by adding 150 μL of 1M glycine, pH 12.5. The endpoint of the reaction was monitored by measuring fluorescence intensity (excitation: 365 nm; emission: 440 nm) on a SpectraMax i3 instrument (Molecular Devices). Test compounds were screened at 1.0 and 0.1 μM final concentration, and subsequent 8-point dose response curves were obtained using 3-fold dilutions from a maximum final concentration of […].
# [2] = Compound solubility in water; format: physicochemical
# [3] = 0.1 μM test compound, read-out: Percent Gcase Activation 0.1 μM Test Compound
# [4] = 1 μM test compound, read-out: Percent Gcase Activation 1 μM Test Compound
# [5] = test compound at 0.1 μM, read-out: Percent Gcase Activation, 0.1 μM Test Compound
# [6] = test compound at 1.0 μM, read-out: Percent Gcase Activation, 1 μM Test Compound
"activation at 0.1 µM [1, 3] [%]","activation at 1 µM [1, 4] [%]",solubility [2] [µg/mL],"activation at 0.1 µM [1, 5] [%]","activation at 1 µM [1, 6] [%]",solubility ([2]; in water) [µg/mL],Compound
< 10,< 30,34.9,–,–,–,Cc1cc(Oc2ccccn2)nc2c(C(=O)N[C@@H](C)C3CC3)ncn12 [III-121]
< 10,< 30,25.6,–,–,–,COc1cc(-c2cc(C)n3cnc(C(=O)N[C@@H](C)C4CC4)c3n2)ccn1 [III-99]
< 10,< 30,0.8,–,–,–,Cc1cc(-c2nc(Cl)cs2)nc2c(C(=O)NC(C)(C)C3CC3)ncn12 [III-140]
> 20,> 60,0.6,–,–,–,Cc1cc(-c2cccc(F)c2)nc2c(C(=O)NC(C)(C)C(F)(F)F)ncn12 [III-183]
> 20,> 60,3.8,–,–,–,Cc1cc(-c2cccc(C#N)c2)nc2c(C(=O)NC(C3CC3)C(F)(F)F)ncn12 (stereo not drawn) [III-152]
10 to 20,> 60,9.3,–,–,–,Cc1cc(-c2ccc(F)cc2)nc2c(C(=O)N[C@@H](C)C3CC3)ncn12 [III-12]
< 10,< 30,2.2,–,–,–,C[C@H](NC(=O)c1ncn2cc(-c3ccc(F)cc3)cnc12)C1CC1 [III-37]
> 20,> 60,4.6,–,–,–,Cc1cc(-c2ccccn2)nc2c(C(=O)NC(CC(C)C)C3CC3)ncn12 (stereo not drawn) [III-27]
> 20,> 60,1.8,–,–,–,CCc1cc(-c2cccc(OC)c2)nc2c(C(=O)N[C@@H](C)C3CC3)ncn12 [III-161]
–,–,–,> 20,> 60,27.5,CCCCO[C@H]1C[C@H]2CC[C@@H](C1)[C@H]2NC(=O)c1ncn2c(COC)cc(C)nc12 [IV-2]
–,–,–,> 20,> 60,0.5,Cc1cc(-c2ccc3c(c2)OCO3)nc2c(C(=O)NC(C3CC3)C(F)(F)F)ncn12 (stereo not drawn) [IV-75]
< 10,30 to 60,10.8,–,–,–,CCc1cc(Oc2ccc(F)cc2)nc2c(C(=O)N[C@@H](C)C3CC3)ncn12 [III-166]
< 10,30 to 60,27.1,–,–,–,Cc1cc(-c2cccnc2)nc2c(C(=O)NC(C)(C)C3CC3)ncn12 [III-41]
> 20,> 60,0.6,–,–,–,COc1cc(-c2cc(C)n3cnc(C(=O)NC(C4CC4)C(F)(F)F)c3n2)ccc1F (stereo not drawn) [III-171]
–,–,–,> 20,> 60,1.1,Cc1cc(-c2ccc3c(c2)OCO3)nc2c(C(=O)N[C@@H](C)C3CC3)ncn12 [IV-28]
< 10,30 to 60,16,–,–,–,Cc1cc(-c2cccnc2)nc2c(C(=O)N[C@H]3CC[C@H](OCC(C)C)CC3)ncn12 [III-66]
< 10,< 30,2.8,–,–,–,Cc1cc(-c2ccn3ccnc3c2)nc2c(C(=O)N[C@@H](C)C3CC3)ncn12 [III-131]
–,–,–,> 20,> 60,1.9,Cc1cc(-c2occc2C#N)nc2c(C(=O)NC(C3CC3)C(F)(F)F)ncn12 (stereo not drawn) [IV-82]
< 10,< 30,26,–,–,–,Cc1cc(-c2ccccn2)nc2c(C(=O)NC(C)C3CC3)ncn12 (stereo not drawn) [III-44]
< 10,30 to 60,4.9,–,–,–,C#CC(C)(C)NC(=O)c1ncn2c(C)cc(-c3cccc(OC)n3)nc12 [III-148]
> 20,> 60,0.2,–,–,–,Cc1cc(-c2cccc(Cl)c2)nc2c(C(=O)NC(C)(C)C3CC3)ncn12 [III-162]
–,–,–,< 10,> 60,24.3,CCCCO[C@H]1C[C@H]2CC[C@@H](C1)[C@@H]2NC(=O)c1ncn2c(C)cc(COC)nc12 [IV-5]
10 to 20,> 60,8,–,–,–,Cc1cc(-c2cc(Cl)ccn2)nc2c(C(=O)N[C@@H](C)C3CC3)ncn12 [III-104]

"activation at 0.1 µM [1, 3] [%]","activation at 1 µM [1, 4] [%]",solubility [2] [µg/mL],"activation at 0.1 µM [1, 5] [%]","activation at 1 µM [1, 6] [%]",solubility ([2]; in water) [µg/mL],Compound
–,–,–,< 10,30 to 60,3.8,Cc1cc(-c2cccc3scnc23)nc2c(C(=O)NC(C3CC3)C(F)(F)F)ncn12 (stereo not drawn) [IV-47]
> 20,> 60,1.7,–,–,–,CNc1cc(C)nc2c(C(=O)NC(c3ccc(F)cc3)C(F)(F)F)ncn12 (stereo not drawn) [III-18]
–,–,–,10 to 20,> 60,0.6,C#CC(NC(=O)c1ncn2c(C)cc(-c3ccccc3C#N)nc12)C(F)(F)F (stereo not drawn) [IV-23]
10 to 20,> 60,2.7,–,–,–,CCC(NC(=O)c1ncn2c(C)cc(-c3ccccn3)nc12)c1ccc(F)cc1 (stereo not drawn) [III-31]
–,–,–,> 20,> 60,0.5,Cc1cc(-c2cccc(C#N)c2F)nc2c(C(=O)NC(C3CC3)C(F)(F)F)ncn12 (stereo not drawn) [IV-36]
–,–,–,< 10,> 60,8.2,Cc1cc(-c2cnsc2)nc2c(C(=O)NC(C)(C)C)ncn12 [IV-55]
< 10,30 to 60,9.7,–,–,–,Cc1cc(N2CCC(F)(F)CC2)nc2c(C(=O)NC(C)(C)C3CC3)ncn12 [III-118]
< 10,< 30,20.5,–,–,–,Cc1cc(N2CCC(F)(F)CC2)nc2c(C(=O)N[C@@H](C)C3CC3)ncn12 [III-115]
–,–,–,10 to 20,> 60,15.9,CCc1cc(-c2ccns2)nc2c(C(=O)NC(C)(C)C)ncn12 [IV-105]
< 10,30 to 60,4.9,–,–,–,Cc1cc(-c2ccc(Cl)nc2)nc2c(C(=O)N[C@@H](C)C3CC3)ncn12 [III-75]
–,–,–,10 to 20,> 60,0.4,Cc1cc(-c2cccc3ncsc23)nc2c(C(=O)NC(C3CC3)C(F)(F)F)ncn12 (stereo not drawn) [IV-48]
< 10,> 60,6.3,–,–,–,Cc1cc(-c2cscn2)nc2c(C(=O)NC(C)(C)C3CC3)ncn12 [III-62]
< 10,> 60,22.5,–,–,–,Cc1cc(-c2cccnc2)nc2c(C(=O)NC(C3CC3)C(F)(F)F)ncn12 (stereo not drawn) [III-71]
< 10,30 to 60,19.3,–,–,–,CO[C@H]1CC[C@@H](C(C)(C)NC(=O)c2ncn3c(C)cc(-c4cccnc4)nc23)CC1 [III-74]
< 10,> 60,12,–,–,–,Cc1cc(C)n2cnc(C(=O)NC(C)(C)CC3CC3)c2n1 [III-46]
> 20,> 60,3.5,–,–,–,CCCCO[C@H]1C[C@H]2CC[C@@H](C1)[C@H]2NC(=O)c1ncn2c(C)cc(-c3cccnc3)nc12 [III-63]
–,–,–,10 to 20,> 60,29.6,CCc1cc(N2CCC(C)(C)C2=O)nc2c(C(=O)NC(C3CC3)C(F)(F)F)ncn12 (stereo not drawn) [IV-107]
–,–,–,10 to 20,> 60,8.3,COc1cccc(-c2cc(C)n3cnc(C(=O)N[C@H](C)C4CC4)c3n2)c1 [IV-1]
> 20,> 60,1.5,–,–,–,Cc1cc(C)n2cnc(C(=O)NC(C)(C)C3CC4(CCC4)C3)c2n1 [III-25]
10 to 20,> 60,3,–,–,–,Cc1cc(-c2ccc(F)cc2)nc2c(C(=O)N[C@@H](C)C3CCC3)ncn12 [III-79]
> 20,> 60,0.9,–,–,–,COc1cccc(-c2cc(C)n3cnc(C(=O)NC(C)(C)C4CC4)c3n2)n1 [III-146]
< 10,> 60,6.1,–,–,–,Cc1cc(-c2ccc3ncoc3c2)nc2c(C(=O)N[C@@H](C)C3CC3)ncn12 [III-129]
